Measured values: ChEMBL document CHEMBL1800007, “Synthesis, activity, and structural analysis of novel α-hydroxytropolone inhibitors of human immunodeficiency virus reverse transcriptase-associated ribonuclease H” (J Med Chem, 2011)
The source made the active and inactive calls. The calls are words filed in the database; no cut-off is given here.

Experiments:
[1] = tested on: Human immunodeficiency virus 1; conditions: at 20 µM
Description: Inhibition of DNA dependent DNA polymerase activity of his6-tagged HIV1 HXB2 reverse transcriptase p66 D549A/p51 mutant expressed in Escherichia coli at 20 uM using fluorescently tagged duplex DNA substrate by PAGE and fluorescent imaging method

[2] = molecular target: Human immunodeficiency virus type 1 reverse transcriptase (Human immunodeficiency virus 1) (UniProt Q72547); conditions: HXB2, at 20 µM
Description: Inhibition of DNA dependent DNA polymerase activity of his6-tagged HIV1 HXB2 reverse transcriptase p66/p51 expressed in Escherichia coli at 20 uM using fluorescently tagged duplex DNA substrate by PAGE and fluorescent imaging method

[3] = tested on: Human immunodeficiency virus 1; test: Antiviral activity against HIV1 RF infected in human CEM-SS cells assessed as protection against virus-induced cytopathic effect; format: functional, organism-based
[4] = molecular target: Human immunodeficiency virus type 1 reverse transcriptase (Human immunodeficiency virus 1, UniProt Q72547); test: Inhibition of RNase H activity of his6-tagged HIV1 HXB2 reverse transcriptase p66/p51 expressed in Escherichia coli assessed as substrate cleavage at polypurine tract by PAGE-based fluorescent imaging method
[5] = tested on: Human immunodeficiency virus 1; conditions: at 20 µM; remark: listed apart in the source
Description: Inhibition of DNA dependent DNA polymerase activity of his6-tagged HIV1 HXB2 reverse transcriptase p66 E478Q/p51 mutant expressed in Escherichia coli at 20 uM using fluorescently tagged duplex DNA substrate by PAGE and fluorescent imaging method

CEM-SS = test: (§1) Cytotoxicity against human CEM-SS cells; format: cell-based; conditions: cem-ss
[6] = Therapeutic index, CC50 for human CEM-SS cells to EC50 for HIV1 RF; format: cell-based
[7] = as §1; format: cell-based; conditions: CEM-SS cells
[8] = Human immunodeficiency virus 1, RF, CEM-SS, read-out: EC50

For `C=C(C)[C@H]1CCc2c(c(C)cc(O)c(=O)c2O)C1`, the inhibition [1] was “inactive”, the inhibition [2] was “inactive” and the EC50 ([3]; cem-ss) was “Not Active”. The IC50 [4] was 0.6 µM and the inhibition [5] was “inactive”.

With `Cc1cc(O)c(=O)c(O)c2c1C[C@@H](C(C)(O)CN1CCCCC1)CC2` (mixture of isomers) the CC50 (CEM-SS) was > 50 µM, the selectivity ratio [6] was 4.9 and the inhibition [1] was “inactive”. For the same compound, the EC50 [3, 8] was 10.2 µM, the IC50 [4] was 0.82 µM and the inhibition [5] was “inactive”.

With `Cc1cc(O)c(=O)c(O)c2c1C[C@@H](C(C)(O)Cn1ccnc1)CC2` (mixture of isomers) the CC50 (CEM-SS) was > 50 µM, the inhibition [1] was “inactive” and the inhibition [2] was “inactive”. For the same compound, the EC50 [3, 8] was 42.1 µM and the inhibition [5] was “inactive”.

For `CCN(CC)CC(C)(O)[C@H]1CCc2c(c(C)cc(O)c(=O)c2O)C1` (mixture of isomers), the CC50 (CEM-SS) was > 50 µM, the inhibition [1] was “inactive” and the inhibition [2] was “inactive”. For the same compound, the “inhibition (INH)” value [3] was <50%, the IC50 [4] was 0.5 µM and the inhibition [5] was “inactive”.

In the case of `Cc1cc(O)c(=O)c(O)c2c1C[C@@H](C(C)(O)CNCc1ccccc1F)CC2` (mixture of isomers), the CC50 (CEM-SS) is reported as > 50 µM, the inhibition [1] is reported as “inactive” and the EC50 ([3]; cem-ss) is reported as “Not Active”. For the same compound, the IC50 [4] was 1.2 µM and the inhibition [5] was “inactive”.

With `Cc1cc(O)c(=O)c(O)c2c1C[C@@H](C(C)(O)CNc1ccccc1)CC2` (mixture of isomers) the CC50 (CEM-SS) was 31.7 µM, the inhibition [1] was “Active” and the EC50 [3, 8] was 7.4 µM. For the same compound, the IC50 [4] was 1.2 µM and the inhibition [5] was “Active”.

With `CCSCC(C)(O)[C@H]1CCc2c(c(C)cc(O)c(=O)c2O)C1` (mixture of isomers) the CC50 (CEM-SS) was 25.8 µM, the inhibition [1] was “inactive” and the “inhibition (INH)” value [3] was <50%. The IC50 [4] was 0.38 µM and the inhibition [5] was “inactive”.

For `Cc1cc(O)c(=O)c(O)c2c1C[C@@H](C(C)(O)CSc1ccccc1)CC2` (mixture of isomers), the CC50 (CEM-SS) was 17.8 µM, the inhibition [1] was “inactive” and the EC50 [3, 8] was 11.5 µM. The IC50 [4] was 0.93 µM and the inhibition [5] was “inactive”.

For `Cc1cc(O)c(=O)c(O)c2c1C[C@@H](C(C)(O)CSCc1ccccc1)CC2` (mixture of isomers), the CC50 (CEM-SS) was 17.4 µM, the inhibition [1] was “inactive” and the EC50 [3, 8] was 4.2 µM. The IC50 [4] was 1.3 µM and the inhibition [5] was “inactive”.

For `CCS(=O)(=O)CC(C)(O)[C@H]1CCc2c(c(C)cc(O)c(=O)c2O)C1` (mixture of isomers), the CC50 (CEM-SS) was 10.4 µM, the inhibition [1] was “inactive” and the “inhibition (INH)” value [3] was <50%. For the same compound, the IC50 [4] was 0.24 µM and the inhibition [5] was “inactive”.

In the case of `Cc1cc(O)c(=O)c(O)c2c1C[C@@H](C(C)(O)C[S+]([O-])c1ccccc1)CC2` (mixture of isomers), the CC50 (CEM-SS) is reported as > 50 µM, the inhibition [1] is reported as “Active” and the EC50 [3, 8] is reported as 14.5 µM. For the same compound, the IC50 [4] was 1.3 µM and the inhibition [5] was “Active”.

For `Cc1cc(O)c(=O)c(O)c2c1C[C@@H](C(C)(O)CS(=O)(=O)c1ccccc1)CC2` (mixture of isomers), the CC50 (CEM-SS) was > 50 µM, the inhibition [1] was “inactive” and the EC50 [3, 8] was 21.2 µM. The IC50 [4] was 0.51 µM and the inhibition [5] was “inactive”.

For `CC(=O)Oc1cc(C)c2c(c(OC(C)=O)c1=O)CC[C@H](C(C)(O)CO)C2` (mixture of isomers), the CC50 [7] was > 50 µM, the inhibition [1] was “inactive” and the inhibition [2] was “inactive”. For the same compound, the EC50 ([3]; cem-ss) was “Not Active”, the IC50 [4] was 1.9 µM and the inhibition [5] was “inactive”.

In the case of `Cc1cc(O)c(=O)c(O)c2c1C[C@@H](C(C)O)CC2` (mixture of isomers), the CC50 (CEM-SS) is reported as 26.1 µM, the inhibition [1] is reported as “inactive” and the EC50 [3, 8] is reported as 6.9 µM. The IC50 [4] was 0.68 µM and the inhibition [5] was “inactive”.

In the case of `Cc1cc(O)c(=O)c(O)c2c1C[C@@H](C(C)NCc1ccccc1)CC2` (mixture of isomers), the CC50 (CEM-SS) is reported as 16.7 µM, the inhibition [1] is reported as “inactive” and the EC50 [3, 8] is reported as 10.6 µM. The IC50 [4] was 0.96 µM and the inhibition [5] was “inactive”.

For `CC(C)c1ccc(O)c(=O)c(O)c1` [BETA-THUJAPLICINOL], the CC50 [7] was 2.3 µM, the inhibition [1] was “inactive” and the inhibition [2] was “inactive”. For the same compound, the EC50 ([3]; cem-ss) was “Not Active”, the IC50 [4] was 0.21 µM and the inhibition [5] was “inactive”.
